In brackets after ≈: the same amount, converted by molar mass. Like-named read-outs stand apart in the source and are kept apart here.
Key:
[1] = test system: Streptococcus pyogenes C203; assay: Protection of mice experimentally infected with S. pyogenes C203; format: in vivo;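 note: two doses given 1 and 4 hours after infection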
Procedure: Some of the derivatives of this invention have shown in vivo antimicrobial activity against experimentally-induced infections in laboratory animals. When two doses of test compound were administered to mice experimentally infected with S. pyogenes C203, the activity observed was measured as an ED50 value [effective dose in mg/kg to protect 50% of the test animals: see Warren Wick, et al., J. Bacteriol. 81, 233-235 (1961)].

[2] = test system: Staphylococcus aureus X400; assay: MIC, standard agar-dilution assay; format: cell-based; details: Staphylococcus aureus, X400
Procedure: (§1) The MIC's in Table II were determined by standard agar-dilution assays. The MIC's in Table III were obtained using a conventional broth-dilution microtiter test.

[3] = test system: Staphylococcus epidermidis EPI2; assay: MIC, standard agar-dilution assay; format: cell-based; details: Staphylococcus epidermidis, EPI2
Procedure: as §1

[4] = test system: Haemophilus influenzae 76; assay: MIC, standard agar-dilution assay; format: cell-based; details: Haemophilus influenzae, 76
Procedure: as §1

[5] = test system: Haemophilus influenzae C.L.; assay: MIC, standard agar-dilution assay; format: cell-based; details: Haemophilus influenzae
Procedure: as §1

[6] = test system: Staphylococcus aureus S13E; assay: microbe, parasite or virus in culture; format: cell-based
Procedure: as §1

[7] = test system: Staphylococcus epidermidis EPI1; assay: microbe, parasite or virus in culture; format: cell-based; details: Staphylococcus epidermidis, EPI1
Procedure: as §1

[8] = test system: Streptococcus sp. 80; assay: MIC, conventional broth-dilution microtiter test; format: cell-based; details: Streptococcus, SP.80
Procedure: (§2) Certain of the derivatives are active against some gram-negative bacteria, such as Pasteurella species. The MIC's in Table II were determined by standard agar-dilution assays. The MIC's in Table III were obtained using a conventional broth-dilution microtiter test.

[9] = test system: Mycoplasma synoviae; assay: MIC, conventional broth-dilution microtiter test; format: cell-based; details: Mycoplasmopsis synoviae
Summary of the method: (§3)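 MICs for the two Pasteurella strains and the Mycoplasma strain were read from a broth-dilution microtiter test. The Klebsiella strain was tested on agar instead.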

[10] = test system: Pasteurella multocida 68C; assay: MIC, conventional broth-dilution microtiter test; format: cell-based; details: Pasteurella multocida, 68C
Summary of the method: as §3

[11] = test system: Pasteurella multocida 17E; assay: MIC, conventional broth-dilution microtiter test; format: cell-based; details: Pasteurella multocida, 17E
Summary of the method: as §3

[12] = test system: Staphylococcus aureus; assay: MIC, conventional broth-dilution microtiter test; format: cell-based
Procedure: as §2

[13] = test system: Pasteurella hemolytica 41D; assay: MIC, conventional broth-dilution microtiter test; format: cell-based; details: Pasteurella, 41D
Summary of the method: as §3

[14] = test system: Mycoplasma gallisepticum 41313; assay: MIC, conventional broth-dilution microtiter test; format: cell-based; details: Mycoplasmoides gallisepticum, 41313
Summary of the method: as §3

[15] = test system: Pasteurella hemolytica 22C; assay: MIC, conventional broth-dilution microtiter test; format: cell-based; details: Pasteurella, 22C
Summary of the method: as §3

[16] = test system: Mycoplasma gallisepticum; assay: MIC, conventional broth-dilution microtiter test; format: cell-based; details: Mycoplasmoides gallisepticum
Summary of the method: as §3

[17] = test system: Mycoplasma gallisepticum 34159; assay: MIC, conventional broth-dilution microtiter test; format: cell-based; details: Mycoplasmoides gallisepticum, 34159
Summary of the method: as §3

[18] = test system: Mycoplasma hyorhinis; assay: MIC, conventional broth-dilution microtiter test; format: cell-based; details: Mycoplasma
Summary of the method: as §3

[19] = test system: Pasteurella multocida 40G; assay: MIC, conventional broth-dilution microtiter test; format: cell-based; details: Pasteurella multocida, 40G
Summary of the method: as §3

[20] = test system: Pasteurella hemolytica 23C; assay: MIC, conventional broth-dilution microtiter test; format: cell-based; details: Pasteurella, 23C
Summary of the method: as §3

[21] = test system: Pasteurella multocida 22A; assay: MIC, conventional broth-dilution microtiter test; format: cell-based; details: Pasteurella multocida, 22A
Summary of the method: as §3

[22] = test system: Pasteurella multocida 60A; assay: MIC, conventional broth-dilution microtiter test; format: cell-based; details: Pasteurella multocida, 60A
Summary of the method: as §3

[23] = test system: Klebsiella pneumoniae KAE; assay: MIC, standard agar-dilution assay; format: cell-based; details: Klebsiella pneumoniae
Summary of the method: as §3

[24] = test system: Escherichia coli EC14; assay: MIC, standard agar-dilution assay; format: cell-based; details: Escherichia coli, EC14
Procedure: as §2

[25] = test system: Staphylococcus aureus V41; assay: MIC, standard agar-dilution assay; format: cell-based; details: Staphylococcus aureus, V41
Procedure: as §2

[26] = test system: Escherichia coli TEM; assay: MIC, standard agar-dilution assay; format: cell-based; details: Escherichia coli
Summary of the method: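 Minimum inhibitory concentrations against Escherichia coli were measured with a standard agar-dilution method. The result for each derivative is the lowest concentration that inhibits bacterial growth, given in ug/mL.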

[27] = test system: Staphylococcus aureus X1.1; assay: MIC, standard agar-dilution assay; format: cell-based; details: Staphylococcus aureus, X1.1
Summary of the method: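 Minimum inhibitory concentration against Staphylococcus aureus strain X1.1 was measured with a standard agar-dilution method. The result is reported as the MIC in ug/mL, i.e. the lowest compound concentration in agar that prevents visible growth of this organism.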

[28] = test system: Klebsiella pneumoniae X26; assay: MIC, standard agar-dilution assay; format: cell-based; details: Klebsiella pneumoniae, X26
Summary of the method: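 Broth microdilution MICs cover P. hemolytica, P. multocida and M. gallisepticum. The agar-dilution MIC covers K. pneumoniae only.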

[29] = test system: Streptococcus pyogenes 9960; assay: MIC, standard agar-dilution assay; format: cell-based; details: 9960
Procedure: as §2

[30] = test system: Streptococcus pneumoniae Park I; assay: MIC, standard agar-dilution assay; format: cell-based; details: Streptococcus pneumoniae
Procedure: as §2

[31] = test system: Streptococcus Group D X66; assay: MIC, standard agar-dilution assay; format: cell-based
Procedure: as §2

[32] = test system: Streptococcus pyogenes C203; assay: MIC, standard agar-dilution assay; format: cell-based; details: Streptococcus pyogenes, C203
Procedure: as §2

With `CCC1CC(C)C(=O)C=CC(C)=CC(COC(=O)Cc2ccccc2)C(CC)OC(=O)CC(O)C(C)C1OC1OC(C)C(O)C(N(C)C)C1O` (stereo not drawn) [Compound 41, 23-O-Phenylacetyl-20-deoxy-20-dihydro-OMT] the ED50 ([1]; C203, po, read-out: ED50 Oral) was > 100 mg/kg, the ED50 ([1]; C203, sc, read-out: ED50 Subcutaneous) was > 25 mg/kg and the MIC [2] was 0.5 µg/mL (≈ 0.712 µM). The MIC [3] was 0.5 µg/mL (≈ 0.712 µM), the MIC [4] was 8 µg/mL (≈ 11.4 µM) and the MIC [5] was 8 µg/mL (≈ 11.4 µM). For the same compound, the MIC [6] was 0.5 µg/mL (≈ 0.712 µM), the MIC [7] was 0.5 µg/mL (≈ 0.712 µM) and the MIC [8] was 1.56 µg/mL (≈ 2.22 µM). The MIC [9] was 3.12 µg/mL (≈ 4.45 µM), the MIC [10] was 3.12 µg/mL (≈ 4.45 µM) and the MIC [11] was 12.5 µg/mL (≈ 17.8 µM). It also gave an MIC [12] of 0.78 µg/mL (≈ 1.11 µM), an MIC [13] of 12.5 µg/mL (≈ 17.8 µM) and an MIC [14] of 50 µg/mL (≈ 71.2 µM). It also gave an MIC [15] of 12.5 µg/mL (≈ 17.8 µM), an MIC [16] of 3.12 µg/mL (≈ 4.45 µM) and an MIC [17] of 50 µg/mL (≈ 71.2 µM). It also gave an MIC [18] of 50 µg/mL (≈ 71.2 µM), an MIC [19] of 12.5 µg/mL (≈ 17.8 µM) and an MIC [20] of 12.5 µg/mL (≈ 17.8 µM). The MIC [21] was 25 µg/mL (≈ 35.6 µM), the MIC [22] was 3.12 µg/mL (≈ 4.45 µM) and the MIC [23] was > 128 µg/mL. For the same compound, the MIC [24] was 128 µg/mL (≈ 182 µM), the MIC [25] was 0.5 µg/mL (≈ 0.712 µM) and the MIC [26] was 16 µg/mL (≈ 22.8 µM). It also gave an MIC [27] of 0.5 µg/mL (≈ 0.712 µM), an MIC [28] of 4 µg/mL (≈ 5.7 µM) and an MIC [29] of 1 µg/mL (≈ 1.42 µM). For the same compound, the MIC [30] was 0.25 µg/mL (≈ 0.356 µM), the MIC [31] was 1 µg/mL (≈ 1.42 µM) and the MIC [32] was 0.5 µg/mL (≈ 0.712 µM).

Source: US4468511A, “C-20- And C-23-Modified macrolide derivatives” (Eli Lilly and Company, priority 1983, dated 1984)
